Experimental data taken from PubChem BioAssay AID179 (DTP/NCI, 2004).
Calls of active or inactive are those of the source.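 How the source made its calls: active means compounds giving half or more protection of infected cells from virus-caused growth loss, again on retest; inactive means the rest.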

System: CEM cells HIV-1 protection, formazan growth assay
Experiment: NCI AIDS Antiviral Assay
Settings: for IC50: measured here: growth of uninfected CEM cells
Method in brief: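 Protection of CEM cells against HIV-1 measured as cell growth via soluble formazan read-out, with five concentrations tested on both infected and uninfected cells; failure to protect may reflect toxicity.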

| Structure (SMILES) | EC50 [µM] | IC50 [µM] | outcome |
| --- | --- | --- | --- |
| O=c1[nH]n2c(=O)cc[nH]c2c1-c1nnns1 | > 30.9 | > 30.9 |  |
| COC1C=CC(O)C(CO)O1 (centres undefined) |  |  | inactive |
| COc1nc2c(nnn2C2OC(CO)C(O)C(O)C2O)c(=O)n1C (centres undefined) |  |  | inactive |
| N#CC(C#N)=Cc1cc(O)c(O)c(O)c1 | > 200 | 31.6 |  |
| COc1cc(C)c2c(c1)CN1CN2Cc2cc(OC)cc(C)c21 |  |  | inactive |
| Cc1noc(C)c1-n1nc2ccc3nonc3c2n1 | > 200 | > 200 |  |
| CC1(C)CC(=O)C(C=NC(=S)C(N)=S)=C(O)C1 | > 200 | 37.2 |  |
| CCc1n[nH]c(=S)n1/N=C/c1ccc(-c2ccc([N+](=O)[O-])cc2)o1 | > 11 | > 11 |  |
| c1cncc(C2c3[nH]c4ccccc4c3CCN2CCCN2CCCCC2)c1 (centres undefined) | > 3.89 | > 3.89 |  |
| C[n+]1c2ccccc2c(CNC(CCC(N)=O)C(=O)O)c2ccccc21 (centres undefined) |  |  | inactive |
| CCCC1(NC(=O)C(F)(F)F)CC(OC)OC2COC(c3ccccc3)OC21 (centres undefined) | > 200 | > 200 |  |
| C=C1C(O)CC[C@]2(C)C1C1OC(C)(C)O[C@]13CC(=O)C(C)=C([C@H]1OC(C)(C)OC12)C3(C)C (some centres undefined) | > 200 | > 200 |  |
| CS(=O)(=O)CCOC(=O)ON1C(=O)CCC1=O | > 200 | 26.9 |  |
| O=C(Nc1ccc(N=Nc2ccccc2)cc1)Sc1ccccc1C(=O)O |  |  | inactive |
| CCOC(=O)c1ccc(N=C2SC(=S)N(c3ccc(F)cc3)C2=Nc2ccc(C(=O)OCC)cc2)cc1 | > 20 | 6.76 |  |
| C=C[Si](C)(C)COC(=O)/C(C#N)=C/C=C/c1ccccc1 | > 9.12 | > 9.12 |  |
| COC1=C(OC)C(=O)C(C/C=C(\C)CC/C=C(\C)CC/C=C(\C)CC/C=C(\C)CC/C=C(\C)CC/C=C(\C)CC/C=C(\C)CC/C=C(\C)CC/C=C(\C)CCC=C(C)C)=C(C)C1=O | > 110 | > 110 |  |
| Cc1ccc(-c2c(C#N)c(-c3ccc([N+](=O)[O-])cc3)c(C#N)c(=O)n2NS(=O)(=O)c2ccc(C)cc2)cc1 | > 200 | 12 |  |
| COCN1C(=O)[C@@H]2CCCN2C(=O)c2ccc([N+](=O)[O-])cc21 | > 200 | > 200 |  |
| C1CSCCSCCCSCCSCCCSCCSCCCSCCSC1 | > 7.08 | > 7.08 |  |
| CCCCCCCCCCCCCCCc1cc(O)ccc1N=O | > 200 | 2.57 |  |
| CC1(C)CNC[C@@](C)(OCCO)C(=O)[N-]C(C)(C)CNC[C@@](C)(OCCO)C(=O)[N-]1.[Ni+2] | > 200 | > 200 |  |

| Structure (SMILES) | EC50 [µM] | IC50 [µM] | outcome |
| --- | --- | --- | --- |
| CCOC(=O)C1(C(=O)OCC)CC=C(C)CC12C(=O)Nc1ccccc12 (centres undefined) | > 72.4 | > 72.4 |  |
| CC(C)=CCC/C(C)=C/CC/C(C)=C/Cc1c(O)c2ccccc2oc1=O | > 186 | 95.5 |  |
| CN(C(=O)C1=CCC2(CC1)OCCO2)c1ccccc1OS(=O)(=O)C(F)(F)F | > 200 | > 200 |  |
| Cc1cc(O)c(/C=N/C(=S)Nc2ccc(S(N)(=O)=O)cc2)c(=O)o1 | > 200 | > 200 |  |
| CN(C)CCNC(=O)c1cccc2c1Oc1cccc([N+](=O)[O-])c1O2 | > 200 | 22.4 |  |
| CC(OC(C)(C)C)[C@H](NC(=O)OC(C)(C)C)C(=O)O (some centres undefined) | > 275 | > 275 |  |
| CC1=CCC[C@H]2[C@](C)(CC3=CC(=O)C(SCC(C)C)=CC3=O)[C@@H](C)CC[C@]12C | > 200 | 2.14 |  |
| O=C(NCCN(CCNC(=O)c1cccc(=O)n1O)CCNC(=O)c1cccc(=O)n1O)c1cccc(=O)n1O | > 200 | > 200 |  |
| CC1(C)[C@@H]2C[C@H]1C(Cc1ccccc1C[C@H]1c3cc(-c4ccccn4)ncc3[C@H]3C[C@@H]1C3(C)C)c1cc(-c3ccccn3)ncc12 (some centres undefined) | > 200 | 0.316 |  |
| OCCN1CSC(=S)NCCNC(=S)SC1 | > 63.1 | > 63.1 |  |
| CCC[CH2][Sn]1([CH2]CCC)[O]Cc2nc(C)ccc2[O]1 | > 14.1 | 3.16 |  |
| CSC1=C(C#N)C(=O)N(c2ccc(Cl)cc2)C(=O)C1C#N (centres undefined) | > 200 | 135 |  |
| O=C1CCCC(=O)N1n1c(Cc2ccc(Cl)cc2)n[nH]c1=O | > 200 | > 200 |  |
| Cc1ccc(NC(=O)CSc2nnc(Cc3ccccc3)o2)c(C)c1 | > 141 | 135 |  |
| Cc1ccc(S(=O)(=O)N2CCC2c2ccccc2)cc1 (centres undefined) |  |  | inactive |
| O=c1c2ccccc2nc(-c2ccccc2Cl)n1NCC1(O)OCC(O)C(O)C1O (centres undefined) |  |  | inactive |
| O=Nc1ccc(Br)cc1 |  |  | inactive |
| CO[C@@](c1ccccc1)(c1nc(C#N)c(N)o1)C(F)(F)F | 79.4 | 115 |  |
| Cc1ccc(NC(=O)C(=O)C2C(=O)NC(=O)NC2=O)c(C)c1 | > 832 | > 832 |  |
| COc1ccc(N/N=C(\CCN(C)C)c2ccccc2)cc1 |  |  | inactive |
| [O-]c1on[n+]2c1Cc1ccccc1C2 | > 200 | > 200 |  |
| Nc1ncnc2c1ncc(=O)n2C1CC(O)C(CO)O1 (centres undefined) | > 200 | > 200 |  |
